Drawing on patent US20170369444A1, “INHIBITORS OF HISTONE DEMETHYLASES” (Gilead Sciences, Inc., priority 2014, published 2017), this text covers IC50 for 17 compounds.

What all share (format): biochemical
The target in one experiment is T1, KDM2B (FBXL10) (Homo sapiens, UniProt Q8NHM5).
T1 construct: 1-650; purchased BPS Bioscience, US; host or cells: Bac (baculovirus/insect cells)
T1 sequence (Q8NHM5 1-650): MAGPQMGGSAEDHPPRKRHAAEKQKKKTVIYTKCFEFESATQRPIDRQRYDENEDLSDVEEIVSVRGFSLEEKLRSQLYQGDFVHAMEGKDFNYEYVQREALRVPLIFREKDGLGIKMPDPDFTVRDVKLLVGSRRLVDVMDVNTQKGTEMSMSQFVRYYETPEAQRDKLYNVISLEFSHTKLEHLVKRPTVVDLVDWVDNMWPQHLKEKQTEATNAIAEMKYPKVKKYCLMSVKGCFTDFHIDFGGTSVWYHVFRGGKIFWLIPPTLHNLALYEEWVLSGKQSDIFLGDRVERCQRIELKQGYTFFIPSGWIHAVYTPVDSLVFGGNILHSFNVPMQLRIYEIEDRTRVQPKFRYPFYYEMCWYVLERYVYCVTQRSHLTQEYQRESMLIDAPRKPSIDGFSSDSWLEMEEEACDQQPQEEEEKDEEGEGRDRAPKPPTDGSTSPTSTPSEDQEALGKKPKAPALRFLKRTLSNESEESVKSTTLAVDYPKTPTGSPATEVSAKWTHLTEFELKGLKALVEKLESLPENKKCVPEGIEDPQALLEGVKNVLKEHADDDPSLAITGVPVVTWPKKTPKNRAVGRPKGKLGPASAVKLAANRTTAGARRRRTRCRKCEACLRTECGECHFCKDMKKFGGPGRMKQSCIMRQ
Briefly: Histone lysine demethylase AlphaLISA assay, KDM2B. The note with it: in vitro enzyme, read-out: KDM2B IC50 (HDME Inhibition). How it is done:
(§1) Histone lysine demethylase AlphaLISA assays are performed to determine IC50 values. […] Assays are performed analogously to the protocol described by PerkinElmer (Roy et al. PerkinElmer Technical Note: AlphaLISA #12, April 2011).
(§2) Assays are performed analogously to the protocol described by PerkinElmer (Roy et al. PerkinElmer Technical Note: AlphaLISA #12, April 2011).
(§3) Enzymes (final assay concentration 0.1-2.5 nM) are dissolved in enzyme buffer and incubated for 10 min before 5 μL is added to 5 μL 3% DMSO solutions of compounds in enzyme buffer, incubated for another 10 minutes, before 5 μL substrate solution is added and the reaction mixture is incubated at room temperature. 10 μL acceptor beads, suspended Epigenetic Buffer (Perkin Elmer AL008) from stock, are added and the suspension is incubated in the dark at room temperature, before 10 μL suspension of streptavidin donor beads (Perkin Elmer 6760002) in Epigenetic Buffer is added. After incubation at room temperature in the dark the plates are read.
(§4) Substrate solution: Substrate (final assay concentration 50-200 nM), 50 mM Hepes (pH 7.4-8.0), 0.003% Tween-20, 0.1% BS, 25 μM L-Asc, 10 μM α-KG. Enzyme Buffer: 50 mM Hepes (pH 7.4-8.0), 0.003% Tween-20, 0.1% BSA; 5 μM (NH4)2Fe(SO4)2
Background: In Alpha technology, singlet oxygen from a donor bead excites a nearby acceptor bead.

Another experiment has as its target PHF8 (KDM7) (Homo sapiens, UniProt Q9UPP1). The experiment can be described thus: Histone lysine demethylase AlphaLISA assay, PHF8. Particulars: in vitro enzyme, read-out: PHF8 IC50 (HDME Inhibition). How it is done:
as §1, §2, §3, §4

A further experiment has as its target T2, KDM6A (UTX) (Homo sapiens, UniProt O15550).
T2 construct: 919-1401; host or cells: E. coli
The experiment can be described thus: Histone lysine demethylase AlphaLISA assay, KDM6A. The note with it: in vitro enzyme, read-out: KDM6A IC50 (HDME Inhibition). How it is done:
as §1, §2, §3, §4

The target in the next experiment is T3, KDM5B (PLU-1) (Homo sapiens, UniProt Q9UGL1).
T3 construct: 1-809; host or cells: E. coli
T3 sequence (Q9UGL1 1-809): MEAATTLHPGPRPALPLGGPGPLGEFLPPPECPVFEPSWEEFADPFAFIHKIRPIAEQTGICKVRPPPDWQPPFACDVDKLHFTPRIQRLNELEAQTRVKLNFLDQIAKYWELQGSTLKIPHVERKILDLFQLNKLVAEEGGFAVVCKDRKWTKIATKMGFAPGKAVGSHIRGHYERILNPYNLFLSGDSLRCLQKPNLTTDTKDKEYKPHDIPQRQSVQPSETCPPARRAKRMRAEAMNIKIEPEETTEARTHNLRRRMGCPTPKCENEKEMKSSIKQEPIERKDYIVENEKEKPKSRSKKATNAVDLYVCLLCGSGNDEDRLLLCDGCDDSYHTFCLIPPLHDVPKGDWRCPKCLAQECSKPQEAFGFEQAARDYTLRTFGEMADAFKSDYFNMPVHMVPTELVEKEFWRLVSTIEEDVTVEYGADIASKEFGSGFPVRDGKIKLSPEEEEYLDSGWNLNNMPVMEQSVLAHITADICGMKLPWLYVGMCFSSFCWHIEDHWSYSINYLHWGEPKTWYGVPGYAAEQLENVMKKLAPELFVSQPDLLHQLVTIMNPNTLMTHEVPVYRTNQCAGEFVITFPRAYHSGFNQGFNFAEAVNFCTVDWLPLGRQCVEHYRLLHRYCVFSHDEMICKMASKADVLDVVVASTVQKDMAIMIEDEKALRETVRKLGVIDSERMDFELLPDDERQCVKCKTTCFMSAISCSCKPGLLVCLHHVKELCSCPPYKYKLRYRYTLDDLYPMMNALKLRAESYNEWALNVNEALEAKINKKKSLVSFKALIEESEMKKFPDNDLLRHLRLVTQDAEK
The experiment can be described thus: Histone lysine demethylase AlphaLISA assay, KDM5B. Particulars: in vitro enzyme, read-out: KDM5B IC50 (HDME Inhibition). How it is done: as §1, §2, §3, §4

The target of a further experiment is T4, KDM4C (JMJD2C) (Homo sapiens, UniProt Q9H3R0).
T4 construct: 1-349; host or cells: E. coli
T4 sequence (Q9H3R0 1-349): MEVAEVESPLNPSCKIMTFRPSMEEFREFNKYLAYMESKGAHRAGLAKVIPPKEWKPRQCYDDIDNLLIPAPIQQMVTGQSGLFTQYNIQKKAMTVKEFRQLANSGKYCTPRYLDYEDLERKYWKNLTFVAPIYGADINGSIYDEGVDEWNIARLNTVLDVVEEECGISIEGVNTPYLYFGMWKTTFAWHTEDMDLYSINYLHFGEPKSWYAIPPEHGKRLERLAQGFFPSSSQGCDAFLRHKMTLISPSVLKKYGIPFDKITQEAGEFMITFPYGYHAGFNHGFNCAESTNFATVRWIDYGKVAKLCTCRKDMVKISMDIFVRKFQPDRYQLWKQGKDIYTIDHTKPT
The experiment can be described thus: Histone lysine demethylase AlphaLISA assay, KDM4C. Particulars: in vitro enzyme, read-out: KDM4C IC50 (HDME Inhibition). The method, then: as §1, §2, §3, §4

PHF8 (KDM7), sequence (Q9UPP1 whole entry): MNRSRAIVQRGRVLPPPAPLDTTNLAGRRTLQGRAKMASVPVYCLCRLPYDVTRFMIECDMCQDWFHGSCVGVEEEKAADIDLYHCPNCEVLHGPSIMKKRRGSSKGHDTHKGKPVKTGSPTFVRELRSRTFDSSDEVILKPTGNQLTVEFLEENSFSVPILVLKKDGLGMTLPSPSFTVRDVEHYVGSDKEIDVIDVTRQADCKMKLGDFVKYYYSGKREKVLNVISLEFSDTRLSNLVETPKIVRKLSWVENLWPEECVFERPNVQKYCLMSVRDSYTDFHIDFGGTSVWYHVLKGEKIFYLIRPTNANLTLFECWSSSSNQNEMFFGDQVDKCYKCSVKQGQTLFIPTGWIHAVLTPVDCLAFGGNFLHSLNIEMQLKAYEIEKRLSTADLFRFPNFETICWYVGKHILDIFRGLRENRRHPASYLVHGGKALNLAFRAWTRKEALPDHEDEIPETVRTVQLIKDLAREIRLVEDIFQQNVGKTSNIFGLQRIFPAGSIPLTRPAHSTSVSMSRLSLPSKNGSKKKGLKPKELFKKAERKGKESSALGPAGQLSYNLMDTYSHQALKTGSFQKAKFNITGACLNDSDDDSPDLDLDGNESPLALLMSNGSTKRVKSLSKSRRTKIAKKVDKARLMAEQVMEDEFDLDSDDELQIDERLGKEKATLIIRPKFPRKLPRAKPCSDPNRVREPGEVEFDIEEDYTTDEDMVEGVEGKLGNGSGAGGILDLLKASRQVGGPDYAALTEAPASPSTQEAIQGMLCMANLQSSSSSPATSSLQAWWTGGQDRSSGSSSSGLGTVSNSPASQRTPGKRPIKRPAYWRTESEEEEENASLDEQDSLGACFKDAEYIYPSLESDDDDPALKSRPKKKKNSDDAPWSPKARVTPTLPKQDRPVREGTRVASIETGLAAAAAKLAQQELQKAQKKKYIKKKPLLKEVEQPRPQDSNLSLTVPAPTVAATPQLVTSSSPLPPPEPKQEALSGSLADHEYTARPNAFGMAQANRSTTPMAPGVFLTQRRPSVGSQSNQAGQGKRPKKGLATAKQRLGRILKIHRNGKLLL
T2 sequence (O15550 919-1401): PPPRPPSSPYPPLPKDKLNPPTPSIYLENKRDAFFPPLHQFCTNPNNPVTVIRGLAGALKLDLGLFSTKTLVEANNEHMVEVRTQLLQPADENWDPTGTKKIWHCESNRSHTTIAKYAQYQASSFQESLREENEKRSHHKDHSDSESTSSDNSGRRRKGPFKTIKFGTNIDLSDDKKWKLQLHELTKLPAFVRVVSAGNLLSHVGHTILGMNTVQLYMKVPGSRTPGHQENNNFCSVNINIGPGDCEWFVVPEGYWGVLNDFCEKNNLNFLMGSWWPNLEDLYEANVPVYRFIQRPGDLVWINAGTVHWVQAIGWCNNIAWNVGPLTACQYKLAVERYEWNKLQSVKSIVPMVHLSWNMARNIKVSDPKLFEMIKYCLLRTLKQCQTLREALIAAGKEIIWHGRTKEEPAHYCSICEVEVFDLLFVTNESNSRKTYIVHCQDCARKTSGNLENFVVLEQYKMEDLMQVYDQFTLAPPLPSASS

Turning to `O=C(O)c1ccnc(CNC2CCc3c(Cc4ccccc4)ccnc32)c1` (centres unmarked) [Compound 92, 2-[({4-benzyl-5H,6H,7H-cyclopenta[b]pyridin-7-yl}amino)methyl]pyri-dine-4-carboxylic acid], the IC50 – broadly, the concentration that inhibits the measured activity by half – on KDM2B (FBXL10) was 250 to 2500 nM; at PHF8 (KDM7) it was 250 to 2500 nM; at KDM6A (UTX), greater than 2500 nM; on KDM5B (PLU-1), less than 250 nM.

For the compound `O=C(O)c1ccnc(CN2CCCC(C3CCCCC3)C2CO)c1` (centres unmarked) [Compound 62, 2-{[3-cyclohexyl-2-(hydroxymethyl)piperidin-1-yl]methyl}pyridine-4-carboxylic acid], the half-maximal inhibitory concentration (IC50) was greater than 2500 nM on KDM4C (JMJD2C) and 250 to 2500 nM at KDM5B (PLU-1).

As for `CCN(CC)C(=O)CCN(CCNC(C)=O)Cc1cc(C(=O)O)ccn1` [Compound 27, 2-({[2-(diethylcarbamoyl)ethyl](2-acetamidoethyl)amino}methyl)pyridine-4-carboxylic acid], the IC50 at KDM2B (FBXL10) is 250 to 2500 nM; at PHF8 (KDM7), 250 to 2500 nM; at KDM6A (UTX), greater than 2500 nM; at KDM5B (PLU-1), 250 to 2500 nM.

In the case of `CC(C)C[C@H](NCc1cc(C(=O)O)ccn1)C(=O)NCc1ccccc1NC(=O)C1CC1C` (stereo partly drawn) [Compound 7, 2-({[(1S)-3-methyl-1-({[2-(2-methylcyclopropane-amido)phenyl]methyl}carbamoyl)butyl]amino}methyl)pyridine-4-carboxylic acid], the IC50 on KDM2B (FBXL10) was 250 to 2500 nM; on PHF8 (KDM7), 250 to 2500 nM; on KDM6A (UTX), greater than 2500 nM.

With `CC(N[C@@H](C)C(=O)NCc1ccccc1)c1cc(C(=O)O)ccn1` (stereo partly drawn) [Compound 36, 2-(1-{[(1S)-1-(benzylcarbamoyl)ethyl]amino}ethyl)pyridine-4-carboxylic acid], the IC50 is 250 to 2500 nM at KDM2B (FBXL10), 250 to 2500 nM at PHF8 (KDM7) and greater than 2500 nM at KDM6A (UTX).

On to `CC(N[C@@H](C)C(=O)NCc1ccccc1CO)c1cc(C(=O)O)ccn1` (stereo partly drawn) [Compound 19, 2-(1-{[(1S)-1-({[2-(hydroxymethyl)phenyl]methyl}carbamoyl)ethyl]amino}ethyl) pyridine-4-carboxylic acid], for which the IC50 at KDM2B (FBXL10) was 250 to 2500 nM; on PHF8 (KDM7) it was 250 to 2500 nM; on KDM6A (UTX) it was greater than 2500 nM.

Turning to `COc1ccc([C@@H](C)N2CC[C@@H](CNCc3cc(C(=O)O)ccn3)C2=O)cc1` [Compound 78, 2-[({[(3S)-1-[(1R)-1-(4-methoxyphenyl)ethyl]-2-oxopyrrolidin-3-yl]methyl}amino)methyl]pyridine-4-carboxylic acid], the IC50 at KDM2B (FBXL10) is less than 250 nM; at PHF8 (KDM7), less than 250 nM; on KDM6A (UTX), greater than 2500 nM.

For `CC(N[C@@H](C)C(=O)NCc1ccccc1O)c1cc(C(=O)O)ccn1` (stereo partly drawn) [Compound 6, 2-(1-{[(1S)-1-{[(2-hydroxyphenyl)methyl]carbamoyl}ethyl]amino}ethyl)pyridine-4-carboxylic acid], the values for the IC50 at KDM2B (FBXL10), on PHF8 (KDM7) and at KDM6A (UTX) were 250 to 2500 nM, 250 to 2500 nM and greater than 2500 nM, respectively.

As to `CCN1CC[C@@H](CNCc2cc(C(=O)O)ccn2)C1=O` [Compound 105, 2-[({[(3S)-1-ethyl-2-oxopyrrolidin-3-yl]methyl}amino)methyl]pyridine-4-carboxylic acid], the half-maximal inhibitory concentration (IC50) on KDM2B (FBXL10) was less than 250 nM; on PHF8 (KDM7) it was less than 250 nM; on KDM6A (UTX), greater than 2500 nM.

Consider `O=C(O)c1ccnc(CNC2CCc3c(Br)ccnc32)c1` (centres unmarked) [Compound 91, 2-[({4-bromo-5H,6H,7H-cyclopenta[b]pyridin-7-yl}amino)methyl]pyri-dine-4-carboxylic acid], for which the IC50 at KDM4C (JMJD2C) is 250 to 2500 nM; at KDM5B (PLU-1) it was less than 250 nM.

Consider `O=C(O)c1ccnc(CN2CCCC(c3ccccc3)C2CO)c1` (centres unmarked) [Compound 63, 2-{[2-(hydroxymethyl)-3-phenylpiperidin-1-yl]methyl}pyridine-4-carboxylic acid], for which the IC50 at KDM4C (JMJD2C) and on KDM5B (PLU-1) was greater than 2500 nM throughout.

Regarding `CC(N[C@@H](C)c1nccs1)c1cc(C(=O)O)ccn1` (stereo partly drawn) [Compound 28, 2-(1-{[(1S)-1-(1,3-thiazol-2-yl)ethyl]amino}ethyl) pyridine-4-carboxylic acid], the concentration for half-maximal inhibition (IC50) is 250 to 2500 nM on KDM2B (FBXL10), 250 to 2500 nM on PHF8 (KDM7) and greater than 2500 nM at KDM6A (UTX).

For the compound `CSCC[C@H](NCc1cc(C(=O)O)ccn1)C(=O)OC(C)(C)C` [Compound 49, 2-({[(2S)-1-(tert-butoxy)-4-(methylsulfanyl)-1-oxobutan-2-yl]amino}methyl)pyri-dine-4-carboxylic acid], the IC50 on KDM2B (FBXL10) was 250 to 2500 nM; on PHF8 (KDM7), 250 to 2500 nM; on KDM6A (UTX), greater than 2500 nM.

In the case of `CC(C)(C)c1nc2ccccn2c1CNCc1cc(C(=O)O)ccn1` [Compound 88, 2-{[({2-tert-butylimidazo[1,2-a]pyridin-3-yl}methyl)amino]methyl}pyridine-4-carboxylic acid], the half-inhibitory concentration (IC50) at KDM2B (FBXL10) was 250 to 2500 nM; on PHF8 (KDM7), less than 250 nM; at KDM6A (UTX), greater than 2500 nM; at KDM5B (PLU-1), less than 250 nM.

On to `CC(C)C[C@@H](CO)NCc1cc(C(=O)O)ccn1` [Compound 61, (S)-2-{[(1-hydroxy-4-methylpentan-2-yl)amino]methyl}pyri-dine-4-carboxylic acid], for which the half-inhibitory concentration (IC50) at KDM4C (JMJD2C) and at KDM5B (PLU-1) was less than 250 nM in each case.

Take `O=C(O)c1ccnc(CN2CCCC[C@H]2CC(=O)N2CCCCC2)c1` [Compound 70, 2-{[(2S)-2-[2-oxo-2-(piperidin-1-yl)ethyl]piperidin-1-yl]methyl}pyridine-4-carboxylic acid]: the IC50 at KDM4C (JMJD2C) and on PHF8 (KDM7) was greater than 2500 nM each time.

`CCNC(=O)C1CCN(Cc2cc(C(=O)O)ccn2)CC1` [Compound 75, 2-{[4-(ethylcarbamoyl)piper-idin-1-yl]methyl} pyridine-4-carboxylic acid]: the IC50 at KDM2B (FBXL10) was 250 to 2500 nM; on PHF8 (KDM7), 250 to 2500 nM; at KDM6A (UTX), greater than 2500 nM; at KDM5B (PLU-1), greater than 2500 nM.
